Test results: patent publication US20190192458A1, “THERAPEUTIC/PROPHYLACTIC AGENT FOR GRAFT-VERSUS-HOST DISEASE, FIBROCYTE INVASION INHIBITOR, AND INHIBITOR AGAINST TEAR REDUCTION AND REDUCTION IN GOBLET CELLS” (KEIO UNIVERSITY, priority 2016, published 2019)

How the values were obtained:
[1] = system: cGVHD model mice (B10.D2 to BALB/c bone marrow transplantation); experiment: Survival and change in weight of PBA-treated allogeneic bone marrow transplantation recipient mice; format: in vivo, mouse; settings: PBA 10 mg/kg i.p. once daily Day 10 to Day 27 after allogeneic bone marrow transplantation
Description: Bone marrow transplantation was performed on model mice of cGVHD (Zhang Y, McCormick L L, Desai S R, Wu C, Gilliam A C, Murine Sclerodermatous Graft-Versus-Host Disease, a Model for Human Scleroderma: Cutaneous Cytokines, Chemokines, and Immune Cell Activation. The Journal of Immunology, 2002; 168: 3088-3098). When a donor was a B10.D2 mouse and a recipient was a BALB/c mouse, bone marrow transplantation was allogeneic, producing a model mouse of cGVHD. […] Recipients were irradiated at 700 cGy before bone marrow transplantation to perform lethal irradiation with a Gammacel 137 Cs source (Hitachi Medical Corp.). The recipient mice were each administered via tail vein with a suspension containing 1×10^6 donor bone marrow cells and 2×10^6 donor spleen cells.
Bone marrow transplantation was performed as described in the above section “Bone marrow transplantation,” and the resulting allogeneic bone marrow transplantation recipient mice were divided into two groups. One group was treated with intraperitoneal injection of PBA (10 mg/kg) (Aldrich) while the other was treated with intraperitoneal injection of a solvent vehicle⋅phosphate buffered saline (PBS) (pH 7.4). […]
Statistical significance was determined by the Mann-Whitney U test (which tests difference between two groups that have no correspondence). […]

[2] = system: CHOP-expressing macrophages in lacrimal gland; experiment: Immunofluorescence of CD68/CHOP in lacrimal gland; format: in vivo; settings: lacrimal gland from PBA-treated vs vehicle-treated mouse, FIG. 7A
Description: Bone marrow transplantation was performed as described in the above section “Bone marrow transplantation,” and the resulting allogeneic bone marrow transplantation recipient mice were divided into two groups. One group was treated with intraperitoneal injection of PBA (10 mg/kg) (Aldrich) while the other was treated with intraperitoneal injection of a solvent vehicle⋅phosphate buffered saline (PBS) (pH 7.4). The allogeneic bone marrow transplantation recipients received once-daily administration of PBA or the solvent vehicle from Day 10 to Day 27 after bone marrow transplantation. They were sacrificed on Day 28 after bone marrow transplantation. […]
Fluorescence images were captured under an LSM confocal microscope (Carl Zeiss). For counting CD45^+ cells, 5 randomly selected regions per section were photographed at a magnification of ×200, and the number of CD45^+ cells in each image was then determined. […]

`O=C(O)CCCc1ccccc1` [PBA, 4-phenyl-n-butyric acid] was tested, and the “% survival” value ([1]; vs vehicle (PBS), FIG. 2A, n=14, P<0.05) was “higher survival percentage”, the change in weight ([1]; vs vehicle, FIG. 2B, n=10, P<0.001) was “the vehicle-treated mouse group showed larger weight loss as compared with the PBA-treated mouse group” and the “CHOP-expressing macrophages migrated into lacrimal gland” value [2] was “not observed”.
